Measurements taken from patent US20260200928A1, “THERAPEUTIC COMPOUNDS” (Sanofi, priority 2022, published 2026).

Each compound was assayed against T1, human IL-17A (Homo sapiens, UniProt Q16552) (assay: IL-17A AlphaLISA competition assay (block of IL-17A binding to its receptor IL-17RA)). Settings: mean IC50 (n≥2), block of IL-17A binding to IL-17RA.
T1 construct: purchased R&D Systems 7955-IL/CF
T1 sequence (Q16552 24-155): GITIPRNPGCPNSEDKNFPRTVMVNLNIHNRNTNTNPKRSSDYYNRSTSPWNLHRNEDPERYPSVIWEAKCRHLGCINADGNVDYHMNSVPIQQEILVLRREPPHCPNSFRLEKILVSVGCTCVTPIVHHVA
Description: The ability of the compounds to block binding of IL-17A to its receptor, IL-17RA, was analysed in a competition assay using AlphaLISA technology (Perkin Elmer). The assay is a bead based AlphaLISA where the IL-17RA is captured on the acceptor bead via an Fc tag and IL-17A is captured on the streptavidin donor bead via a biotinylated anti-IL17A antibody.
Assay buffer was prepared by adding 0.05% Tween-20 (v/v) and 0.1% BSA to Phosphate Buffered Saline (PBS). The assay was carried out in 384-well white low volume plates (Perkin Elmer #6008359). 10 μL of a 7.5 nM stock of human recombinant IL-17A (R&D Systems 7955-IL/CF) diluted in assay buffer was dispensed into the assay plate and compounds or DMSO vehicle control were added in a volume of 75 nL using an acoustic dispenser (Beckman). The compounds were pre-incubated with the IL-17A for 30 min at room temperature prior to addition of 5 μL of a 5 nM stock of human recombinant IL-17RA/Fc chimera (R&D Systems 177-IR-100) diluted in assay buffer. The IL-17A was incubated with the receptor for a further 90 minutes at room temperature before addition of 5 μL of a mixture of anti-human Fc IgG acceptor beads (75 μg/mL, Perkin Elmer AL1030) and anti-IL-17A biotin conjugated antibody (5 nM, Abcam, #ab155575) in assay buffer. After a further 30 min incubation at room temperature, 5 μL of streptavidin donor beads (75 μg/mL, Perkin Elmer 6760002S) were added and the plate was incubated for 3 h in the dark.
The AlphaLisa signal was measured using the PheraSTAR plate reader (BMG). Data were analysed using GeneData Screener and fitted to a 4-parameter logistic equation. The IC50 values were calculated using the DMSO vehicle as the negative control and a high concentration (4 μM) of a reference IL-17A inhibitor as the positive control. All compounds were analysed at least in duplicate (n≥2).

| Compound | IC50 [nM] |
| --- | --- |
| 1-isopropyl-N-((1S)-2-((4-((S)-2-methoxy-1-((S)-2-oxo-4-(trifluoromethyl)imidazolidin-1-yl)ethyl)pyridin-2-yl)amino)-2-oxo-1-(4-(trifluoromethyl)cyclohexyl)ethyl)-1H-pyrazole-5-carboxamide [Example 303] | 46 |
| 4-Cyclopropyl-N—((S)-1-((1r,4S)-4-methylcyclohexyl)-2-oxo-2-((5-(((S)-2-oxo-4-(trifluoromethyl)imidazolidin-1-yl)methyl)pyridin-3-yl)amino)ethyl)-1,2,5-oxadiazole-3-carboxamide and 4-Cyclopropyl-N—((R)-1-((1r,4R)-4-methylcyclo-hexyl)-2-oxo-2-((5-(((S)-2-oxo-4-(trifluoromethyl)imidazolidin-1-yl)methyl)pyridin-3-yl)amino)ethyl)-1,2,5-oxadiazole-3-carboxamide [Example 84] | 373 |
| 4-ethyl-N-(1-(4-fluorocyclohexyl)-2-((4-((S)-2-methoxy-1-((S)-2-oxo-4-(trifluoromethyl)imidazolidin-1-yl)ethyl)pyridin-2-yl)amino)-2-oxoethyl)-1,2,5-oxadiazole-3-carboxamide [Example 285] | 17 |
| CC(C)(C)OCC(NC(=O)OCc1ccccc1)C(=O)Nc1cc(CN2C[C@@H](C(F)(F)F)NC2=O)ccn1 (mixture of isomers) [Example 81, Benzyl ((rac)-3-(tert-butoxy)-1-oxo-1-((4-(((S)-2-oxo-4-(trifluoromethyl)imidazolidin-1-yl)methyl)pyridin-2-yl)amino)propan-2-yl)carbamate] | 6140 |
| COCC(c1ccnc(NC(=O)[C@@H](NC(=O)c2cnc(C)nc2C(F)(F)F)[C@H]2CC[C@H](C)CC2)c1)N1C[C@@H](C(F)(F)F)NC1=O (mixture of isomers) [Example 90, N-((1S)-2-((4-(2-methoxy-1-((RS)-2-oxo-4-(trifluoromethyl)imidazolidin-1-yl)ethyl)pyridin-2-yl)amino)-1-((1r,4S)-4-methylcyclohexyl)-2-oxoethyl)-2-methyl-4-(trifluoromethyl)pyrimidine-5-carboxamide] | 4520 |
| Cn1nccc1C(=O)N[C@H](C(=O)Nc1cc(C(NC(=O)CCC(F)(F)F)C2CC2)ccn1)C(C1CC1)C1CC1 (single isomer, unassigned) [Example 38] | 448 |
| O=C(CCC(F)(F)F)NC(c1ccnc(NC(=O)[C@@H](NC(=O)c2nonc2C2CC2)C(C2CC2)C2CC2)c1)C1CC1 (single isomer, unassigned) [Example 39] | 138 |
| O=C(CCC(F)(F)F)NC(c1ccnc(NC(=O)[C@@H](NC(=O)c2nonc2C2CC2)C(C2CC2)C2CC2)c1)C1CC1 (single isomer, unassigned) [Example 40] | 92 |
| CC(C)n1nccc1C(=O)N[C@H](C(=O)Nc1cc(C(NC(=O)CCC(F)(F)F)C2CC2)ccn1)C(C1CC1)C1CC1 (single isomer, unassigned) [Example 41] | 282 |
| Cn1nccc1C(=O)N[C@H](C(=O)Nc1cc(C(NC(=O)CCC(F)(F)F)C2CC2)ccn1)C(C1CC1)C1CC1 (single isomer, unassigned) [Example 42] | 524 |
| CC(C)n1nccc1C(=O)N[C@H](C(=O)Nc1cc(C(NC(=O)CCC(F)(F)F)C2CC2)ccn1)C(C1CC1)C1CC1 (single isomer, unassigned) [Example 43] | 171 |
| CCc1nocc1C(=O)N[C@H](C(=O)Nc1cc(C(NC(=O)CCC(F)(F)F)C2CC2)ccn1)C(C1CC1)C1CC1 (single isomer, unassigned) [Example 44] | 151 |
| CN1C[C@H]2[C@@H]([C@H]1C(=O)N[C@H](C(=O)Nc1cc(C(NC(=O)CCC(F)(F)F)C3CC3)ccn1)C(C1CC1)C1CC1)C2(C)C (single isomer, unassigned) [Example 56] | 7420 |
| COCC(c1ccnc(NC(=O)[C@@H](NC(=O)OC(C)(C)C)[C@H]2CC[C@H](C)CC2)c1)N1C[C@@H](C(F)(F)F)NC1=O (single isomer, unassigned) [Example 65, tert-butyl ((S)-2-((4-((S or R)-2-methoxy-1-((S)-2-oxo-4-(trifluoromethyl)imidazolidin-1-yl)ethyl)pyridin-2-yl)amino)-1-((1r,4S)-4-methylcyclohexyl)-2-oxoethyl)carbamate] | 522 |
| COCC(c1ccnc(NC(=O)[C@@H](NC(=O)OC(C)(C)C)[C@H]2CC[C@H](C)CC2)c1)N1C[C@@H](C(F)(F)F)NC1=O (single isomer, unassigned) [Example 66, tert-butyl ((S)-2-((4-((R or S)-2-methoxy-1-((S)-2-oxo-4-(trifluoromethyl)imidazolidin-1-yl)ethyl)pyridin-2-yl)amino)-1-((1r,4S)-4-methylcyclohexyl)-2-oxoethyl)carbamate] | 74 |
| C[C@H]1CC[C@H]([C@H](NC(=O)c2ccnn2CCC(O)C(F)(F)F)C(=O)Nc2cc(CN3C[C@@H](C(F)(F)F)NC3=O)ccn2)CC1 (single isomer, unassigned) [Example 68] | 136 |
| C[C@H]1CC[C@H]([C@H](NC(=O)c2ccnn2CCC(O)C(F)(F)F)C(=O)Nc2cc(CN3C[C@@H](C(F)(F)F)NC3=O)ccn2)CC1 (single isomer, unassigned) [Example 69] | 126 |
| CC(C)(C)OC(=O)N[C@H](C(=O)Nc1cc(C(NC(=O)CCC(F)(F)F)C2CC2)ccn1)[C@H]1CC[C@H](C)CC1 (single isomer, unassigned) [Example 73] | 1010 |
| CC(C)(C)OC(=O)N[C@H](C(=O)Nc1cc(C(NC(=O)CCC(F)(F)F)C2CC2)ccn1)C1CCC(F)(F)CC1 (single isomer, unassigned) [Example 74] | 2620 |
| COCC(c1ccnc(NC(=O)[C@@H](NC(=O)c2nonc2C)[C@H]2CC[C@H](C)CC2)c1)N1C[C@@H](C(F)(F)F)NC1=O (single isomer, unassigned) [Example 75] | 134 |
| COCC(c1ccnc(NC(=O)[C@@H](NC(=O)c2ncsc2C)[C@H]2CC[C@H](C)CC2)c1)N1C[C@@H](C(F)(F)F)NC1=O (single isomer, unassigned) [Example 91] | 119 |

More lines, now with the values ahead:

| IC50 [nM] | Compound |
| --- | --- |
| 58 | COC[C@H](c1ccnc(NC(=O)[C@@H](NC(=O)C(F)(F)c2cccc(C#N)c2)[C@H]2CC[C@H](C)CC2)c1)N1C[C@@H](C(F)(F)F)NC1=O (relative stereo) [Example 247, 2-(3-Cyanophenyl)-2,2-difluoro-N—((S)-2-((4-((S)-2-methoxy-1-((S)-2-oxo-4-(trifluoromethyl)imidazolidin-1-yl)ethyl)pyridin-2-yl)amino)-1-((1r,4S)-4-methylcyclohexyl)-2-oxoethyl)acetamide] |
| 11 | COCC(c1ccnc(NC(=O)[C@@H](NC(=O)c2nonc2C2CC2)[C@H]2CC[C@H](C)CC2)c1)N1C[C@@H](C(F)(F)F)NC1=O (single isomer, unassigned) [Example 58] |
| 61 | COCC(c1ccnc(NC(=O)[C@@H](NC(=O)c2nonc2C2CC2)[C@H]2CC[C@H](C)CC2)c1)N1C[C@@H](C(F)(F)F)NC1=O (single isomer, unassigned) [Example 59] |
| 60 | COCC(c1ccnc(NC(=O)[C@@H](NC(=O)c2conc2C(C)C)[C@H]2CC[C@H](C)CC2)c1)N1C[C@@H](C(F)(F)F)NC1=O (single isomer, unassigned) [Example 77] |
| 69 | COCC(c1ccnc(NC(=O)[C@@H](NC(=O)c2ccnn2C(C)C)[C@H]2CC[C@H](C)CC2)c1)N1C[C@@H](C(F)(F)F)NC1=O (single isomer, unassigned) [Example 78] |
| 12 | COCC(c1ccnc(NC(=O)[C@@H](NC(=O)c2ccnn2C)[C@H]2CC[C@H](C)CC2)c1)N1C[C@@H](C(F)(F)F)NC1=O (single isomer, unassigned) [Example 85] |
| 6 | COCC(c1ccnc(NC(=O)[C@@H](NC(=O)c2nonc2C)[C@H]2CC[C@H](C)CC2)c1)N1C[C@@H](C(F)(F)F)NC1=O (single isomer, unassigned) [Example 86] |
| 13 | COCC(c1ccnc(NC(=O)[C@@H](NC(=O)c2ccnn2C(C)C)[C@H]2CC[C@H](C)CC2)c1)N1C[C@@H](C(F)(F)F)NC1=O (single isomer, unassigned) [Example 87] |
| 4 | CCc1nonc1C(=O)N[C@H](C(=O)Nc1cc(C(COC)N2C[C@@H](C(F)(F)F)NC2=O)ccn1)[C@H]1CC[C@H](C)CC1 (single isomer, unassigned) [Example 88] |
| 11 | COCC(c1ccnc(NC(=O)[C@@H](NC(=O)c2conc2C(C)C)[C@H]2CC[C@H](C)CC2)c1)N1C[C@@H](C(F)(F)F)NC1=O (single isomer, unassigned) [Example 89] |
